Test results as given in PMC12635197, “Discovery of first-in-class inhibitors of the TRF1:TIN2 protein:protein interaction by fragment screening” (Scientific Reports, 2025).
Where no end group is shown, it is not given here. FAM = 5(6)-carboxyfluorescein

T1: TRF1TRFH (Homo sapiens, UniProt P54274)
T1 construct: encoding residues 47–268, UniProt identifier P54274-1; His6-MBP (TEV-cleavable) (N, cleaved yes); made in house; host or cells: E. coli BL21-CodonPlus(DE3)-RIL
T1 sequence (P54274 47-268): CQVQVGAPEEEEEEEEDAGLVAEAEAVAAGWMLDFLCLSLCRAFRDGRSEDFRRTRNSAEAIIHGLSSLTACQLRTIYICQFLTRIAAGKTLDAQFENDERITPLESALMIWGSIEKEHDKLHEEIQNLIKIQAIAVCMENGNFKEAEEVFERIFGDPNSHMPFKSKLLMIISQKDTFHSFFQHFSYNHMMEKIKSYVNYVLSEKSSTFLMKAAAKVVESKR

T2: TRFH domain of TRF1 (TRF1_(TRFH)), residues 47–268 (human, UniProt P54274-1 47-268)
T2 construct: cDNA codon-optimised for E. coli; also called TRF homology (TRFH) domain; source: E. coli BL21-CodonPlus(DE3)-RIL, purified (HisTrap, TEV cleavage, second HisTrap, Superdex 200 SEC); not shown: His6, N-terminal, cleaved; MBP, N-terminal, cleaved
T2 sequence (looked up): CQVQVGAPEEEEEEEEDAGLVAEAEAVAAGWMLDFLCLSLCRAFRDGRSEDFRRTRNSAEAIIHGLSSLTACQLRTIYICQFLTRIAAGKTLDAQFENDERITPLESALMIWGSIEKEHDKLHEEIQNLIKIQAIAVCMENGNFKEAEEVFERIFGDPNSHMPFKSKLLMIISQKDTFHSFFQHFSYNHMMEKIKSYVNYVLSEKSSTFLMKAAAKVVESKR

T3: (StrepII)2-TEV-tagged TIN2, subunit of recombinant shelterin (UniProt Q9BSI4-1 1-451)
T3 construct: TIN2, gene NM_001099274.1, codon-optimised; a TEV site lies between tag and protein; The separately made control protein is called TIN2L; The discussion says that the complex carries a short peptidic tag on TIN2; source: Sf9, co-expressed with the other shelterin subunits (MultiBac baculovirus), purified (StrepTrap, serial SEC)
T3 sequence (looked up): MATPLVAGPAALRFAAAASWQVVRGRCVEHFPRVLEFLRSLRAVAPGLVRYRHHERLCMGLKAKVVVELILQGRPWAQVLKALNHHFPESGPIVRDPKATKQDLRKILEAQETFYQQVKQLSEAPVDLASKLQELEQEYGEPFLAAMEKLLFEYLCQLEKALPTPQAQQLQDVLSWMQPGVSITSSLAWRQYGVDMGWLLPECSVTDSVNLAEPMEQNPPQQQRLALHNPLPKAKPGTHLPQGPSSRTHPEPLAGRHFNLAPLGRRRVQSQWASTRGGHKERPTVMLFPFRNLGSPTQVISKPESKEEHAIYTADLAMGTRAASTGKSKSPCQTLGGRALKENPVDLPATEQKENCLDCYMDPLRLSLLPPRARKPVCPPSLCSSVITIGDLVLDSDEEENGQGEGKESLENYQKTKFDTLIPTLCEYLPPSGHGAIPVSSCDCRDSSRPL

T4: TRF1 (telomeric repeat-binding factor 1), full length, subunit of recombinant shelterin (human), P54274
T4 chain: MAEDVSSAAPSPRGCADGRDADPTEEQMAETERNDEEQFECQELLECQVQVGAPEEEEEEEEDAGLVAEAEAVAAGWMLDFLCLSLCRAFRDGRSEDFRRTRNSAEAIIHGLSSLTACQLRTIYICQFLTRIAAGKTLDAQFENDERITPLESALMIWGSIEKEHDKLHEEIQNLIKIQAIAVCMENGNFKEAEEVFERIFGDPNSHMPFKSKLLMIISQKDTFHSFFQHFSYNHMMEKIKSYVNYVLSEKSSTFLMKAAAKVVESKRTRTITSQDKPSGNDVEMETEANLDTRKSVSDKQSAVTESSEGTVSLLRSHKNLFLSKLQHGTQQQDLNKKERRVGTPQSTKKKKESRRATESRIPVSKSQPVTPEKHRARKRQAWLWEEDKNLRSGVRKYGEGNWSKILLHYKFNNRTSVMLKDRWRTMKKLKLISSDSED


Experiments:
[1] = Fragment solubility assay (quantitative 1H NMR); format: physicochemical; conditions: Supplementary Table 1
Method: Aqueous solubility test samples were prepared by adding 3.6 µL compound (50 mM stock in 100% DMSO-d6) to 176.4 µL NMR buffer in a microcentrifuge tube. The samples were incubated overnight and transferred to a 3-mm NMR tube (Bruker, Part No. Z112272). ^1H NMR spectra were recorded, with the DMSO and water signals dampened. 1 mM caffeine (Sigma, C1778 in PBS (pH 7.4) with 1% DMSO-d6) was used as a standard to quantify the ligand signals and determine the concentration of samples.
NMR data were collected on a Bruker Avance Neo 600-MHz spectrometer equipped with a 5 mm TCI-CryoProbe. The ^1H spectrum was referenced to the internal deuterated solvent. The operating frequency for ^1H was 600 MHz. All NMR data were acquired at the temperature of 298 K. All data were acquired and processed using Bruker Topspin 4.0. The quantitative ^1H-NMR spectrum was acquired using a Bruker standard 1D lc1pngppsf2 pulse sequence with 32 scans. The sweep width was 6.2 ppm with O1P set to 8.8 ppm, and the FID contained 16k time-domain data points. Relaxation delay was set to 20 s. Water signal was suppressed.

TRF1TRFH [2] = target: T1, TRF1TRFH; test: LO-NMR CPMG assay (relaxation-edited), singletons; format: binding; conditions: single experiment; for CPMG reduction: average peak intensity reduction on addition of TRF1TRFH, 250 µM ligand, 20 µM protein; for CPMG recovery: net recovery of peak intensity on addition of TIN2TBM peptide (40 µM) to compound plus protein
Method: We next used a LO-NMR CPMG assay to orthogonally validate XChem hits in solution, aiming to eliminate false positives and rank hit matter for follow-up studies. Compounds were tested as singletons and prepared in two samples containing either compound alone (sample 1) or compound + TRF1TRFH (sample 2).
The fragment screen by LO-NMR was carried out using conditions described previously, with some modifications. Fragments were dispensed in triplicate into a 384-well plate using an Echo 550 liquid handler to give a final ligand concentration of 250 µM (total sample volume of 40 µL). 40 µL of TRF1TRFH protein (in NMR buffer; 20 µM final protein concentration in the assay) were added to the ‘protein’ samples; 40 µL of TRF1TRFH protein and TIN2TBM peptide (21-mer, Ac-[…]-CONH2; 40 µM final concentration in the assay) were both added to the ‘competitor’ samples; 40 µL NMR buffer were added to the ‘compound-only’ samples. Solutions were transferred to 1.7-mm NMR tubes using a Bruker SamplePro Tube robotics system. ^1H NMR spectra were recorded on a Bruker AVIII 500 MHz spectrometer at 298 K, equipped with a 1.7-mm TXI probe, with samples in 1.7-mm SampleJET NMR tubes (Bruker). DMSO and water signals were dampened. A relaxation spin filter was applied at 400 ms. Data were processed using Bruker Topspin 4.0. Lines were broadened with LB = 3.0, and the baseline was corrected between 6.0 and 10.0 ppm.
The data were then analysed using the MNova Screen software. Only peaks between 5.5 and 9.5 ppm were considered. Peaks with a height of < 5% maximum peak height within the region of interest were considered noise, and the minimum matched peak level was set at > 51%. The relative peak intensity change (I) was calculated for all peaks in the 5.5–9.5 ppm region, for each compound, as described previously. The average integral for all peaks between 6.0 and 10.0 ppm was calculated, and the differences between compound-only, compound-plus-protein, and compound-plus-protein-plus-competitor samples were compared. The net recovery was calculated by subtracting the reduction in peak integral of the compound-plus-protein samples from the compound-plus-protein-plus-competitor samples.
For hit validation, relaxation-edited LO-NMR experiments were repeated as described above on single compounds instead of fragment cocktails.

TRF1TRFH [3] = target: T1, TRF1TRFH; test: Crystal soaking of TRF1TRFH crystals; conditions: soaking into TRF1TRFH crystals; Supplementary Table 1
Description: Attempts to soak TRF1TRFH crystals with the commercially available analogues of the XChem hit 5 were also unsuccessful. Only one slightly smaller analogue (22) could be soaked into TRF1TRFH crystals, albeit with an ambiguous binding mode. […] In the case of compound 5, we observed a hydrogen bond between the amino group of the fragment and a backbone carbonyl in the neighbouring protein chain (Fig. 2i). […] Additionally, the pocket normally occupied by the conserved phenylalanine residue of the TIN2 F-X-L-X-P motif was fully obstructed by a crystal contact with a TRF1TRFH copy in an adjacent asymmetric unit, further limiting the possibility of obtaining XChem hits outside of the leucine pocket.
TRF1TRFH crystals in the P3_121 space group were grown by sitting drop vapour diffusion in SWISSCI 3-drop plates using similar crystallisation conditions to those described previously. The total drop volume was 300 nL, consisting of 150 nL of TRF1TRFH (31.2 mg/mL) and 150 nL of reservoir solution (1% PEG8000, 100 mM MES pH 6.0, 1–12 mM Mg(OAc)2, 10–15% glycerol), whilst the reservoir volume was 35 µL. Crystallisation plates were set up using an SPT Labtech mosquito Xtal2 liquid handler. Cuboid-shaped crystals grew to their maximum size (300 μm across) within 24 h. Crystals were cryoprotected through the addition of 180 nL of 40% glycerol to the crystal drop prior to harvesting, giving a final glycerol concentration of […] (accounting for the glycerol already in the crystallisation conditions). The crystals were then flash-frozen in liquid nitrogen, and data were collected at the Diamond Light Source beamlines I04 and I04-1 and processed automatically using the Xia2 Dials pipeline[53],[54]. The TRF1TRFH structure was solved by molecular replacement in Phaser MR[55] within CCP4[56] using the previously published TRF1TRFH structure as a search model (PDB: 1H6O)[31], after having first stripped the search model of solvent molecules and ligands. Structure refinement was done using Refmac[57] and Buster[36], and model correction and building was done using Coot 0.9.6[35].
The DSi-Poised library (768 fragment, Enamine)[32], the EUbOPEN DSiP extension library (108 fragments) and the FragLite library (31 fragments)[33] were screened against TRF1TRFH crystals. Compounds at 500 mM in DMSO stocks were dispensed into selected crystal drops as singletons using an Echo 550 liquid handler to give a final concentration of 50 mM (10% DMSO final concentration). After incubation for 1 h at 20 °C, 180 nL of glycerol (40% stock, final drop concentration 28.8–32.5%) were added to each drop immediately prior to crystal harvesting and flash-freezing in liquid nitrogen.
Data were collected on the I04-1 beamline at Diamond Light Source. […]

TIN2 TBM (Homo sapiens) = TIN2 TBM (Homo sapiens) (UniProt Q9BSI4); conditions: cited from earlier work
[4] = target: T2, TRFH domain of TRF1 (TRF1_(TRFH)), …; test: fluorescence polarisation; direct titration: TRF1_(TRFH) 20 to 0.02 µM (11 points) against 25 nM TIN2-FAM; 25 mM HEPES-NaOH pH 7.5, 100 mM NaCl, 1 mM TCEP, 0.05% w/v CHAPS; 1 h at room temperature; conditions: both partners purified
[5] = target: T2, TRFH domain of TRF1 (TRF1_(TRFH)), …; test: ligand-observed NMR (CPMG / R2 relaxation) competition; fragment 250 µM with 20 µM TRF1_(TRFH), with or without 40 µM TIN2TBM peptide as competitor; NMR buffer; 298 K; conditions: both partners purified
[6] = target: T3, (StrepII)2-TEV-tagged TIN2, subunit of …; test: mass photometry; SEC-purified shelterin without compound; complex of around 700 kDa; 50 mM HEPES-NaOH pH 8.0, 300 mM NaCl; conditions: both partners purified
[7] = target: T4, TRF1 (telomeric repeat-binding factor …); test: mass photometry; SEC-purified shelterin 1.25 µM incubated 1 h at room temperature with 100-300 µM compound 40, cross-linked with 0.1% glutaraldehyde, diluted to 50 nM; conditions: remark: other sources report otherwise

Molecule	Aq. Sol. [1]	CPMG reduction (TRF1TRFH [2])	CPMG recovery (TRF1TRFH [2])	Crystal structure (TRF1TRFH [3])	further results
COc1ccc2sc(N)nc2c1 [Compound 20]	580 µM	25%	0%	Yes	–
COc1cc2nc(N)sc2cc1OC [Compound 21]	190 µM	14%	12%	No	–
Nc1nc2cc3c(cc2s1)OCO3 [Compound 24]	400 µM	28%	11%	No	–
TRF1 TRFH (from UniProt P54274)	–	–	–	–	Kd (TIN2 TBM (Homo sapiens)): 300 nM
{FAM}-RHFNLAPLGRRRVQSQWASTR [TIN2TBM peptide labelled with an N-terminal 5(6)-carboxyfluorescein (TIN2-FAM)]	–	–	–	–	Kd [4]: 400 nM
Ac-RHFNLAPLGRRRVQSQWASTR-NH2 (limits worked out from L260 of the F-X-L-X-P motif) [TIN2TBM peptide (21-mer, Ac-RHFNLAPLGRRRVQSQWASTR-CONH2)]	–	–	–	–	binding result [5]: binds
TRF1 (telomeric repeat-binding factor 1), full length, subunit of recombinant shelterin (natural protein, human, UniProt P54274-1 1-439, looked up, TRF1, gene NM_017489.2, codon-optimised; the UniProt identifier is printed for the TRFH construct of the same protein; Further details of the shelterin construct 'to be reported elsewhere'; also called full-length TRF1) MAEDVSSAAPSPRGCADGRDADPTEEQMAETERNDEEQFECQELLECQVQVGAPEEEEEEEEDAGLVAEAEAVAAGWMLDFLCLSLCRAFRDGRSEDFRRTRNSAEAIIHGLSSLTACQLRTIYICQFLTRIAAGKTLDAQFENDERITPLESALMIWGSIEKEHDKLHEEIQNLIKIQAIAVCMENGNFKEAEEVFERIFGDPNSHMPFKSKLLMIISQKDTFHSFFQHFSYNHMMEKIKSYVNYVLSEKSSTFLMKAAAKVVESKRTRTITSQDKPSGNDVEMETEANLDTRKSVSDKQSAVTESSEGTVSLLRSHKNLFLSKLQHGTQQQDLNKKERRVGTPQSTKKKKESRRATESRIPVSKSQPVTPEKHRARKRQAWLWEEDKNLRSGVRKYGEGNWSKILLHYKFNNRTSVMLKDRWRTMKKLKLISSDSED	–	–	–	–	stoichiometry N [6]: 2 TRF1 per TIN2; stoichiometry N [7]: 2
